Laboratory results reported in US11325940B2, “Certain chemical entities, compositions, and methods” (NeuPharma, Inc., priority 2012, dated 2022).

These compounds were tested on A549 cells (assay: Inhibition of cancer cell growth, MTT assay). Conditions: Homo sapiens, A549, 72 h.
Type: cell-based
Protocol: Inhibition of cell growth by compounds was measured using MTT assay (Mosmann, T., Journal of Immunological Methods, 1983, 65, 55-63). Tumor cell lines were purchased from ATCC (American Type Culture Collection, Manassas, Va.). All cell lines were maintained in RPMI 1640 (Hyclone) supplemented with 10% fetal bovine serum (FBS, Hyclone), glutamine (2 mM, Hyclone), and antibiotics (penicillin 100 U/mL and streptomycin 50 μg/mL) at 37° C. in a humidified atmosphere of 5% CO2 in air. Taxol (as a positive control, Sigma) and compounds were dissolved in DMSO (Sigma), and the final concentration of DMSO in the medium was 1%. Tumor cells were plated in 96-well plates at densities of about 4000 cells/well of a 96-well plate and allowed to adhere/grow for 24 h. They were then treated with various concentrations of drug for 72 h. 3-(4,5-Dimethylthiazol-2-yl)-2,5-diphenyltetrazolium bromide (MTT, Sigma) was used to determine the number of viable cells at the time of compound addition and the number of cells remaining after 72 h compound exposure. The number of cells remaining after 72 h was compared to the number of viable cells at the time of compound addition by measuring the absorbance at 570 nm, allowing for the calculation of growth inhibition.
All concentrations of compounds were tested in triplicate and controls were averaged over 4 wells. IC50 was calculated by plotting the concentration of compound vs the percentage of inhibition in treated wells using GraphPad Prism 5. […] The scale utilized in Table 3 is as follows: ++++ less than 20 nM; +++ between 20 nM and 100 nM; ++ between 100 nM and 1000 nM; and + greater than 1000 nM.

| SMILES | IC50 [nM] |
| --- | --- |
| C[C@]12CC[C@@H](NC(=O)N3CCCC3)C[C@H]1CC[C@@H]1[C@@H]2CC[C@]2(C)[C@@H](c3ccc(=O)oc3)CC[C@]12O [Compound C05, N-((3R,5R,8R,9S,10S,13R,14S,17R)-14-hydroxy-10,13-dimethyl-17-(2-oxo-2H-pyran-5-yl)hexadecahydro-1H-cyclopenta[a]phenanthren-3-yl)pyrrolidine-1-carboxamide] | 100 to 1000 |
| C[C@]12CC[C@H](NC(=O)N3CCCC3)C[C@H]1CC[C@@H]1[C@@H]2CC[C@]2(C)[C@@H](c3ccc(=O)oc3)CC[C@]12O [Compound C06, N-((3S,5R,8R,9S,10S,13R,14S,17R)-14-hydroxy-10,13-dimethyl-17-(2-oxo-2H-pyran-5-yl)hexadecahydro-1H-cyclopenta[a]phenanthren-3-yl)pyrrolidine-1-carboxamide] | < 20 |
| C[C@]12CC[C@@H](NC(=O)NCCO)C[C@H]1CC[C@@H]1[C@@H]2CC[C@]2(C)[C@@H](c3ccc(=O)oc3)CC[C@]12O [Compound C07, 1-((3R,5R,8R,9S,10S,13R,14S,17R)-14-hydroxy-10,13-dimethyl-17-(2-oxo-2H-pyran-5-yl)hexadecahydro-1H-cyclopenta[a]phenanthren-3-yl)-3-(2-hydroxyethyl)urea] | 100 to 1000 |
| C[C@]12CC[C@H](NC(=O)NCCO)C[C@H]1CC[C@@H]1[C@@H]2CC[C@]2(C)[C@@H](c3ccc(=O)oc3)CC[C@]12O [Compound C09, 1-((3S,5R,8R,9S,10S,13R,14S,17R)-14-hydroxy-10,13-dimethyl-17-(2-oxo-2H-pyran-5-yl)hexadecahydro-1H-cyclopenta[a]phenanthren-3-yl)-3-(2-hydroxyethyl)urea] | 20 to 100 |
| C[C@]12CC[C@@H](NC(=O)[C@@H]3CCCN3)C[C@H]1CC[C@@H]1[C@@H]2CC[C@]2(C)[C@@H](c3ccc(=O)oc3)CC[C@]12O [Compound C13, (S)-N-((3R,5R,8R,9S,10S,13R,14S,17R)-14-hydroxy-10,13-dimethyl-17-(2-oxo-2H-pyran-5-yl)hexadecahydro-1H-cyclopenta[a]phenanthren-3-yl)pyrrolidine-2-carboxamide] | 100 to 1000 |
| C[C@]12CC[C@H](NC(=O)[C@@H]3CCCN3)C[C@H]1CC[C@@H]1[C@@H]2CC[C@]2(C)[C@@H](c3ccc(=O)oc3)CC[C@]12O [Compound C14, (S)-N-((3S,5R,8R,9S,10S,13R,14S,17R)-14-hydroxy-10,13-dimethyl-17-(2-oxo-2H-pyran-5-yl)hexadecahydro-1H-cyclopenta[a]phenanthren-3-yl)pyrrolidine-2-carboxamide] | < 20 |
| C[C@]12CCC(N3CCNCC3)C[C@H]1CC[C@@H]1[C@@H]2CC[C@]2(C)[C@@H](c3ccc(=O)oc3)CC[C@]12O (stereo partly drawn) [Compound C15, 5-((5R,8R,9S,10S,13R,14S,17R)-14-hydroxy-10,13-dimethyl-3-(piperazin-1-yl)hexadecahydro-1H-cyclopenta[a]phenanthren-17-yl)-2H-pyran-2-one] | < 20 |
| C[C@]12CC[C@H](NS(C)(=O)=O)C[C@H]1CC[C@@H]1[C@@H]2CC[C@]2(C)[C@@H](c3ccc(=O)oc3)CC[C@]12O [Compound C16, N-((3S,5R,8R,9S,10S,13R,14S,17R)-14-hydroxy-10,13-dimethyl-17-(2-oxo-2H-pyran-5-yl)hexadecahydro-1H-cyclopenta[a]phenanthren-3-yl)methanesulfonamide] | < 20 |
| COC(=O)N[C@H]1CC[C@@]2(C)[C@H](CC[C@@H]3[C@@H]2CC[C@]2(C)[C@@H](c4ccc(=O)oc4)CC[C@]32O)C1 [Compound C17, methyl ((3S,5R,8R,9S,10S,13R,14S,17R)-14-hydroxy-10,13-dimethyl-17-(2-oxo-2H-pyran-5-yl)hexadecahydro-1H-cyclopenta[a]phenanthren-3-yl)carbamate] | < 20 |
| COC(=O)N(C)C1CC[C@@]2(C)[C@H](CC[C@@H]3[C@@H]2CC[C@]2(C)[C@@H](c4ccc(=O)oc4)CC[C@]32O)C1 (stereo partly drawn) [Compound C21, methyl ((5R,8R,9S,10S,13R,14S,17R)-14-hydroxy-10,13-dimethyl-17-(2-oxo-2H-pyran-5-yl)hexadecahydro-1H-cyclopenta[a]phenanthren-3-yl)(methyl)carbamate] | < 20 |
| CN(C(=O)N1CCOCC1)C1CC[C@@]2(C)[C@H](CC[C@@H]3[C@@H]2CC[C@]2(C)[C@@H](c4ccc(=O)oc4)CC[C@]32O)C1 (stereo partly drawn) [Compound C23, N-((5R,8R,9S,10S,13R,14S,17R)-14-hydroxy-10,13-dimethyl-17-(2-oxo-2H-pyran-5-yl)hexadecahydro-1H-cyclopenta[a]phenanthren-3-yl)-N-methylmorpholine-4-carboxamide] | 100 to 1000 |
| CC(C)[C@@H](N)C(=O)N[C@H]1CC[C@@]2(C)[C@H](CC[C@@H]3[C@@H]2CC[C@]2(C)[C@@H](c4ccc(=O)oc4)CC[C@]32O)C1 [Compound C25, (R)-2-amino-N-((3S,5R,8R,9S,10S,13R,14S,17R)-14-hydroxy-10,13-dimethyl-17-(2-oxo-2H-pyran-5-yl)hexadecahydro-1H-cyclopenta[a]phenanthren-3-yl)-3-methylbutanamide] | < 20 |
| CC(C)[C@@H](N)C(=O)N[C@H]1CC[C@]2(C)[C@H]3CC[C@]4(C)[C@@H](c5ccc(=O)oc5)CC[C@]4(O)[C@@H]3CC[C@]2(O)C1 [Compound C29, (2R)-2-amino-N-((5S,8R,9S,10R,13R,14S,17R)-5,14-dihydroxy-10,13-dimethyl-17-(2-oxo-2H-pyran-5-yl)hexadecahydro-1H-cyclopenta[a]phenanthren-3-yl)-3-methylbutanamide] | < 20 |
| C[C@]12CCC(NC(=O)[C@H]3CCCN3)C[C@@]1(O)CC[C@@H]1[C@@H]2CC[C@]2(C)[C@@H](c3ccc(=O)oc3)CC[C@]12O (stereo partly drawn) [Compound C31, (2R)-N-((5S,8R,9S,10R,13R,14S,17R)-5,14-dihydroxy-10,13-dimethyl-17-(2-oxo-2H-pyran-5-yl)hexadecahydro-1H-cyclopenta[a]phenanthren-3-yl)pyrrolidine-2-carboxamide] | < 20 |
| C[C@]12CC[C@@H](N)C[C@H]1CC[C@@H]1[C@@H]2CC[C@]2(C)[C@@H](c3ccc(=O)oc3)CC[C@]12O [Compound C34, 5-((3R,5R,8R,9S,10S,13R,14S,17R)-3-amino-14-hydroxy-10,13-dimethylhexadecahydro-1H-cyclopenta[a]phenanthren-17-yl)-2H-pyran-2-one] | > 1000 |
| C[C@]12CC[C@H](N)C[C@H]1CC[C@@H]1[C@@H]2CC[C@]2(C)[C@@H](c3ccc(=O)oc3)CC[C@]12O [Compound C35, 5-((3S,5R,8R,9S,10S,13R,14S,17R)-3-amino-14-hydroxy-10,13-dimethylhexadecahydro-1H-cyclopenta[a]phenanthren-17-yl)-2H-pyran-2-one] | < 20 |

Same assay, conditions: Homo sapiens; A549 cells, 72 h compound exposure, MTT; read-out: IC50

| SMILES | IC50 [nM] |
| --- | --- |
| C[C@]12CC[C@@H](NC(=O)N3CCOCC3)C[C@H]1CC[C@@H]1[C@@H]2CC[C@]2(C)[C@@H](c3ccc(=O)oc3)CC[C@]12O [Compound C01, N-((3R,5R,8R,9S,10S,13R,14S,17R)-14-hydroxy-10,13-dimethyl-17-(2-oxo-2H-pyran-5-yl)hexadecahydro-1H-cyclopenta[a]phenanthren-3-yl)morpholine-4-carboxamide] | 100 to 1000 |
| C[C@]12CC[C@@H](NC(=O)N3CCNCC3)C[C@H]1CC[C@@H]1[C@@H]2CC[C@]2(C)[C@@H](c3ccc(=O)oc3)CC[C@]12O [Compound C03, N-((3R,5R,8R,9S,10S,13R,14S,17R)-14-hydroxy-10,13-dimethyl-17-(2-oxo-2H-pyran-5-yl)hexadecahydro-1H-cyclopenta[a]phenanthren-3-yl)piperazine-1-carboxamide] | < 20 |
| C[C@]12CC[C@@H](NC(=O)NCCN)C[C@H]1CC[C@@H]1[C@@H]2CC[C@]2(C)[C@@H](c3ccc(=O)oc3)CC[C@]12O [Compound C08, 1-(2-aminoethyl)-3-((3R,5R,8R,9S,10S,13R,14S,17R)-14-hydroxy-10,13-dimethyl-17-(2-oxo-2H-pyran-5-yl)hexadecahydro-1H-cyclopenta[a]phenanthren-3-yl)urea] | 100 to 1000 |
| C[C@]12CC[C@@H](NC(=O)CN)C[C@H]1CC[C@@H]1[C@@H]2CC[C@]2(C)[C@@H](c3ccc(=O)oc3)CC[C@]12O [Compound C11, 2-amino-N-((3R,5R,8R,9S,10S,13R,14S,17R)-14-hydroxy-10,13-dimethyl-17-(2-oxo-2H-pyran-5-yl)hexadecahydro-1H-cyclopenta[a]phenanthren-3-yl)acetamide] | 20 to 100 |
